Test system: GH surge induced by GHRH
Assay: Effect on circulating growth hormone: GH surge induced by i.v. GHRH in rats, plasma GH by RIA
Type: in vivo, male Sprague-Dawley rats
Experimental: Experiments were conducted in male Sprague-Dawley rats (200-220 g) obtained from lffa Credo (L'Arbresle, France), fed with standard laboratory chow ad libitum and kept on a 12 h light-dark in a temperature- and humidity-controlled room.
Rats were weighed and anesthetized with Narcorene. The ventral side of the throat was shaved and an incision was made down the center of the throat. The right jugular vein was exposed and cannulated using a polythene tubing (OD 1.0 mm) connected to a medical grade silicone tubing (OD 0.94 mm) (silicone side in the jugular vein). The tubing was secured and the polythene side was externalized through an incision made on the dorsal side of the neck. The catheter was rinsed with 300 μL of a Ringer solution containing 0.1% heparin. Rats were allowed to recover for at least 24 hours in individual cages with food and water available ad libitum.
The compound of Example 1B (3 mg/kg, i.v.) or its vehicle was injected 15 minutes before an injection of GHRH (0.1 μg/kg, i.v.). Blood samples (200-250 μL) were removed immediately before inhibitor and GHRH injections, and then 5, 10, 15, 20, 30 and 60 min post-GHRH. Each blood sample was replaced with an equivalent volume of a Ringer solution containing 0.1% heparin. Plasma was extracted and stored at −20° C. until determinations of GH by RIA.

## CC(C)(C)[C@H](N)C(=O)N1CCC[C@H]1C#N [Example 1B, (2S)-N-((2′S)-2′-amino-3′,3′-dimethylbutanoyl)pyrrolidine-2-carbonitrile]
3 mg/kg i.v. 15 min before GHRH 0.1 μg/kg i.v., rats
  Effect on the GH surge induced by the administration of GHRH: potentiated the GH surge
5 min post-GHRH 0.1 μg/kg i.v., inhibitor 3 mg/kg i.v. 15 min before GHRH, mean of 6 rats ± s.e.m.
  mean GH, Time 5 min: 483.0 ± 91.0 ng/mL
10 min post-GHRH 0.1 μg/kg i.v., inhibitor 3 mg/kg i.v. 15 min before GHRH, mean of 6 rats ± s.e.m.
  mean GH, Time 10 min: 309.5 ± 55.40 ng/mL
15 min after inhibitor 3 mg/kg i.v., immediately before GHRH 0.1 μg/kg i.v., mean of 6 rats ± s.e.m.
  mean GH, Time 0 min: 33.4 ± 6.9 ng/mL
15 min post-GHRH 0.1 μg/kg i.v., inhibitor 3 mg/kg i.v. 15 min before GHRH, mean of 6 rats ± s.e.m.
  mean GH, Time 15 min: 164.3 ± 28.3 ng/mL
20 min post-GHRH 0.1 μg/kg i.v., inhibitor 3 mg/kg i.v. 15 min before GHRH, mean of 6 rats ± s.e.m.
  mean GH, Time 20 min: 103.1 ± 18.1 ng/mL
30 min post-GHRH 0.1 μg/kg i.v., inhibitor 3 mg/kg i.v. 15 min before GHRH, mean of 6 rats ± s.e.m.
  mean GH, Time 30 min: 52.1 ± 7.7 ng/mL
60 min post-GHRH 0.1 μg/kg i.v., inhibitor 3 mg/kg i.v. 15 min before GHRH, mean of 6 rats ± s.e.m.
  mean GH, Time 60 min: 26.3 ± 3.3 ng/mL
AUC column of Table 1, inhibitor 3 mg/kg i.v. 15 min before GHRH 0.1 μg/kg i.v., 6 rats, ± s.e.m.
  GH AUC: 5070 ± 837 ng·min/mL
inhibitor-treated group, 3 mg/kg i.v. 15 min before GHRH 0.1 μg/kg i.v., p<0.05 vs vehicle (720.2±217.0)
  Integrated GH response: 5072.8±837.3 ng/ml.60 min
Plasma GH immediately before inhibitor injection (3 mg/kg i.v.), mean of 6 rats ± s.e.m.
  mean GH, Time -15 min: 50.5 ± 16.4 ng/mL

— patent US6521644B1, “Compositions for promoting growth” (Ferring BV, priority 1999, dated 2003)
